Consider 25 compounds from US8455475B2 (Gruenenthal GmbH, priority 2009, dated 2013).

The test concerns the target T1, rat B1R (bradykinin receptor 1) (Rattus norvegicus, UniProt P97583).
T1 construct: expressed in transfected cells; host or cells: CHO K1 cells
T1 sequence (P97583 1-337): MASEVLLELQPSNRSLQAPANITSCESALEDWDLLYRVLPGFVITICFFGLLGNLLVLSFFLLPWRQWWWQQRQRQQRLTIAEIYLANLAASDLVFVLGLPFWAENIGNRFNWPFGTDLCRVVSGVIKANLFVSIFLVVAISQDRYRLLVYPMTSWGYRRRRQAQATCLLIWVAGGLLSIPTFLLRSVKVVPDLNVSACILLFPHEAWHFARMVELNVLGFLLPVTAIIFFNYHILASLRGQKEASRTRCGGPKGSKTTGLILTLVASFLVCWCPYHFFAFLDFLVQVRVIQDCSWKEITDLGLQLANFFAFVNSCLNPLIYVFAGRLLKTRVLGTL
The experiment in a line: FLIPR Ca2+ assay (Fluo-4) on CHO K1 cells stably transfected with the B1R gene of the rat (rB1R cells): % inhibition at 10 μM / IC50, agonist Des-Arg9-bradykinin. The following applies: CHO-K1, rat B1R. The test is classed as cell-based. The gist of the method: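 Stable CHO K1 lines, Fluo-4 dye, probenecid-containing buffer. Cpd 10 μM or dose range, 10–20 min, then EC80 agonist (h: Lys-Des-Arg9-BK; r: Des-Arg9-BK). Readout peak FC; % inhibition vs max; IC50 from n=2–3, N≥2.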
For `O=C(NC1CCc2ccc(C(=O)N3CCC4(CCN(Cc5c(F)cccc5F)CC4)C3)cc21)c1ccccc1Cl` (stereo not shown) [IND_CC-504, 2-Chloro-N-[6-[8-[(2,6-difluoro-phenyl)-methyl]-2,8-diazaspiro[4.5]decane-2-carbonyl]-2,3-dihydro-1H-inden-1-yl]-benzamide], the inhibition (in general, the drop in the measured response relative to a control, in per cent) at 10 µM is 51%.

Turning to `O=C(NC1CCc2ccc(C(=O)N3CCC4(CCN(CCCc5ccc(F)cc5)CC4)C3)cc21)c1cc(C(F)(F)F)ccc1Cl` (stereo not shown) [IND_CC-692, 2-Chloro-N-[6-[8-[3-(4-fluorophenyl)-propyl]-2,8-diazaspiro[4.5]decane-2-carbonyl]-2,3-dihydro-1H-inden-1-yl]-5-(trifluoromethyl)-benzamide], the inhibition at 10 µM is 99%.

As to `CN(C(=O)c1ccccc1Cl)C1CCc2ccc(C(=O)N3CCC4(CCN(Cc5cccc(C#N)c5)CC4)C3)cc21` (stereo not shown) [IND_CC-572, 2-Chloro-N-[6-[8-[(3-cyano-phenyl)-methyl]-2,8-diazaspiro[4.5]decane-2-carbonyl]-2,3-dihydro-1H-inden-1-yl]-N-methyl-benzamide], the inhibition at 10 µM worked out at 80%.

Consider `N#Cc1ccc(CN2CCC3(CC2)CCN(C(=O)c2ccc4c(c2)C(NC(=O)c2sccc2Cl)CC4)C3)cc1` (stereo not shown) [IND_CC-569, 3-Chloro-N-[6-[8-[(4-cyano-phenyl)-methyl]-2,8-diazaspiro[4.5]decane-2-carbonyl]-2,3-dihydro-1H-inden-1-yl]-thiophene-2-carboxylic acid amide], for which the inhibition at 10 µM turned out to be 52%.

As for `O=C(c1ccc2c(c1)C(NS(=O)(=O)Cc1ccccc1F)CC2)N1CCC2(CC1)CCN(c1ccncc1)CC2` (stereo not shown) [IND_CC-349, 1-(2-Fluorophenyl)-N-[6-(9-pyridin-4-yl-3,9-diazaspiro[5.5]undecane-3-carbonyl)-2,3-dihydro-1H-inden-1-yl]-methanesulfonic acid amide], the inhibition at 10 µM was 105%.

As for `O=C(NC1CCc2ccc(C(=O)N3CCC4(CC3)CCN(c3ccc(C(F)(F)F)cc3)CC4)cc21)c1cc(F)c(F)cc1Cl` (stereo not shown) [IND_CC-230, 2-Chloro-4,5-difluoro-N-[6-[9-[4-(trifluoromethyl)-phenyl]-3,9-diazaspiro[5.5]undecane-3-carbonyl]-2,3-dihydro-1H-inden-1-yl]-benzamide], the inhibition at 10 µM is 104%.

With `O=C(NC1CCc2ccc(C(=O)N3CCC4(CCN(c5ccncc5)CC4)C3)cc21)C1CCCCC1` (stereo not shown) [IND_CC-367, N-[6-(8-Pyridin-4-yl-2,8-diazaspiro[4.5]decane-2-carbonyl)-2,3-dihydro-1H-inden-1-yl]-cyclohexanecarboxylic acid amide], the inhibition at 10 µM stood at 104%.

As for `O=C(NC1CCc2ccc(C(=O)N3CCC4(CC3)CCN(c3ccncc3)C4)cc21)C1CCCCC1` (stereo not shown) [IND_CC-366, N-[6-(2-Pyridin-4-yl-2,8-diazaspiro[4.5]decane-8-carbonyl)-2,3-dihydro-1H-inden-1-yl]-cyclohexanecarboxylic acid amide], the inhibition at 10 µM was found to be 104%.

As to `N#Cc1ccc(CN2CCC3(CC2)CCN(C(=O)c2ccc4c(c2)C(NC(=O)c2ccccc2Cl)CC4)CC3)cc1` (stereo not shown) [IND_CC-533, 2-Chloro-N-[6-[9-[(4-cyano-phenyl)-methyl]-3,9-diazaspiro[5.5]undecane-3-carbonyl]-2,3-dihydro-1H-inden-1-yl]-benzamide], the inhibition at 10 µM came to 74%.

Take `Cc1c(CN2CCC3(CC2)CCN(C(=O)c2ccc4c(c2)C(NC(=O)c2ccccc2Cl)CC4)CC3)cnn1C` (stereo not shown) [IND_CC-531, 2-Chloro-N-[6-[9-[(1,5-dimethyl-1H-pyrazol-4-yl)-methyl]-3,9-diazaspiro[5.5]undecane-3-carbonyl]-2,3-dihydro-1H-inden-1-yl]-benzamide]: the inhibition at 10 µM is 81%.

Turning to `Cc1cccc(Cl)c1S(=O)(=O)N(C)C1CCc2ccc(C(=O)N3CCC4(CC3)CCN(c3ccncc3)CC4)cc21` (stereo not shown) [IND_CC-227, 2-Chloro-N,6-dimethyl-N-[6-(9-pyridin-4-yl-3,9-diazaspiro[5.5]undecane-3-carbonyl)-2,3-dihydro-1H-inden-1-yl]-benzenesulfonic acid amide], the inhibition at 10 µM was 97%.

Regarding `Cc1cccc(Cl)c1C(=O)NC1CCc2ccc(C(=O)N3CCC4(CCN(Cc5cccc(C#N)c5)CC4)C3)cc21` (stereo not shown) [IND_CC-732, 2-Chloro-N-[6-[8-[(3-cyano-phenyl)-methyl]-2,8-diazaspiro[4.5]decane-2-carbonyl]-2,3-dihydro-1H-inden-1-yl]-6-methyl-benzamide], the inhibition at 10 µM was 100%.

Take `Cc1cc(F)cc(C)c1S(=O)(=O)NC1CCc2ccc(C(=O)N3CCC4(CC3)CCN(c3ccncc3)CC4)cc21` (stereo not shown) [IND_CC-355, 4-Fluoro-2,6-dimethyl-N-[6-(9-pyridin-4-yl-3,9-diazaspiro[5.5]undecane-3-carbonyl)-2,3-dihydro-1H-inden-1-yl]-benzenesulfonic acid amide]: the inhibition at 10 µM turned out to be 65%.

As to `CN(C(=O)c1ccccc1F)C1CCc2ccc(C(=O)N3CCC4(CC3)CCN(c3ccncc3)CC4)cc21` (stereo not shown) [IND_CC-400, 2-Fluoro-N-methyl-N-[6-(9-pyridin-4-yl-3,9-diazaspiro[5.5]undecane-3-carbonyl)-2,3-dihydro-1H-inden-1-yl]-benzamide], the inhibition at 10 µM is 103%.

`CN(C(=O)c1ccc(C(F)(F)F)cn1)C1CCc2ccc(C(=O)N3CCC4(CC3)CCN(c3ccncc3)CC4)cc21` (stereo not shown) [IND_CC-395, N-Methyl-N-[6-(9-pyridin-4-yl-3,9-diazaspiro[5.5]undecane-3-carbonyl)-2,3-dihydro-1H-inden-1-yl]-5-(trifluoromethyl)-pyridine-2-carboxylic acid amide]: the inhibition at 10 µM came out at 58%.

In the case of `O=C(NC1CCc2ccc(C(=O)N3CCC4(CCN(CC5CCCCC5)CC4)CC3)cc21)c1cc(C(F)(F)F)ccc1Cl` (stereo not shown) [IND_CC-700, 2-Chloro-N-[6-[9-(cyclohexyl-methyl)-3,9-diazaspiro[5.5]undecane-3-carbonyl]-2,3-dihydro-1H-inden-1-yl]-5-(trifluoromethyl)-benzamide], the inhibition at 10 µM was 64%.

Turning to `O=C(c1ccc2c(c1)C(NS(=O)(=O)c1cccc(C(F)(F)F)c1)CC2)N1CCC2(CC1)CCN(c1ccncc1)CC2` (stereo not shown) [IND_CC-328, N-[6-(9-Pyridin-4-yl-3,9-diazaspiro[5.5]undecane-3-carbonyl)-2,3-dihydro-1H-inden-1-yl]-3-(trifluoromethyl)-benzenesulfonic acid amide], the inhibition at 10 µM was 98%.

For the compound `CC(C)(C)CC(=O)N1CCC2(CC1)CCN(C(=O)c1ccc3c(c1)C(NC(=O)c1sccc1Cl)CC3)C2` (stereo not shown) [IND_CC-583, 3-Chloro-N-[6-[8-(3,3-dimethyl-butanoyl)-2,8-diazaspiro[4.5]decane-2-carbonyl]-2,3-dihydro-1H-inden-1-yl]-thiophene-2-carboxylic acid amide], the inhibition at 10 µM stood at 75%.

Take `Cn1nnc2cc(CN3CCC4(CC3)CCN(C(=O)c3ccc5c(c3)C(NC(=O)c3cccc(Cl)c3Cl)CC5)C4)ccc21` (stereo not shown) [IND_CC-746, 2,3-Dichloro-N-[6-[8-[(1-methyl-1H-benzotriazol-5-yl)-methyl]-2,8-diazaspiro[4.5]decane-2-carbonyl]-2,3-dihydro-1H-inden-1-yl]-benzamide]: the inhibition at 10 µM was 78%.

`CCC(CC)CN1CCC2(CC1)CCN(C(=O)c1ccc3c(c1)C(NC(=O)c1c(C)cccc1Cl)CC3)C2` (stereo not shown) [IND_CC-768, 2-Chloro-N-[6-[8-(2-ethyl-butyl)-2,8-diazaspiro[4.5]decane-2-carbonyl]-2,3-dihydro-1H-inden-1-yl]-6-methyl-benzamide]: the inhibition at 10 µM came out at 79%.

As to `Cc1c(CN2CCC3(CC2)CCN(C(=O)c2ccc4c(c2)C(NC(=O)c2cc(C(F)(F)F)ccc2Cl)CC4)CC3)cnn1C` (stereo not shown) [IND_CC-664, 2-Chloro-N-[6-[9-[(1,5-dimethyl-1H-pyrazol-4-yl)-methyl]-3,9-diazaspiro[5.5]-undecane-3-carbonyl]-2,3-dihydro-1H-inden-1-yl]-5-(trifluoromethyl)benzamide], the inhibition at 10 µM stood at 54%.

As for `O=C(NC1CCc2ccc(C(=O)N3CCC4(CCN(CC5CCCCC5)CC4)C3)cc21)c1cc(C(F)(F)F)ccc1Cl` (stereo not shown) [IND_CC-689, 2-Chloro-N-[6-[8-(cyclohexyl-methyl)-2,8-diazaspiro[4.5]decane-2-carbonyl]-2,3-dihydro-1H-inden-1-yl]-5-(trifluoromethyl)-benzamide], the inhibition at 10 µM came to 55%.

As for `Cn1cccc1CN1CCC2(CC1)CCN(C(=O)c1ccc3c(c1)C(NC(=O)c1c(F)cccc1Cl)CC3)CC2` (stereo not shown) [IND_CC-787, 2-Chloro-6-fluoro-N-[6-[9-[(1-methyl-1H-pyrrol-2-yl)-methyl]-3,9-diazaspiro[5.5]undecane-3-carbonyl]-2,3-dihydro-1H-inden-1-yl]-benzamide], the inhibition at 10 µM was 93%.

In the case of `Cc1nc[nH]c1CN1CCC2(CC1)CCN(C(=O)c1ccc3c(c1)C(NC(=O)c1ccccc1Cl)CC3)CC2` (stereo not shown) [IND_CC-527, 2-Chloro-N-[6-[9-[(5-methyl-3H-imidazol-4-yl)-methyl]-3,9-diazaspiro[5.5]undecane-3-carbonyl]-2,3-dihydro-1H-inden-1-yl]-benzamide], the inhibition at 10 µM was determined as 98%.

`O=C(NC1CCc2ccc(C(=O)N3CCC4(CCN(C(=O)Nc5ccc(Cl)cc5Cl)CC4)CC3)cc21)c1ccccc1Cl` (stereo not shown) [IND_CC-710, 3-[3-[(2-Chloro-benzoyl)amino]-2,3-dihydro-1H-indene-5-carbonyl]-N-(2,4-dichlorophenyl)-3,9-diazaspiro[5.5]undecane-9-carboxylic acid amide]: the inhibition at 10 µM is 90%.
